Converted amounts (≈) assume the structure as drawn. Like-named read-outs stand apart in the source and are kept apart here.
What was measured:
[1] = system: herpes simplex virus, type 1; assay: In vitro antiviral, inhibition of virus-induced CPE, HSV/1; type: cell-based; settings: KB or RK-13 cells, VR >0.5 significant, <0.5 slight antiviral activity
adenovirus, type 3 = assay: In vitro antiviral, inhibition of virus-induced cytopathogenic effect (CPE), AV/3; type: cell-based; settings: KB or RK-13 cells, VR >0.5 significant, <0.5 slight antiviral activity
vaccinia virus = type: cell-based; settings: VV; KB or RK-13 cells; VR >0.5 significant, <0.5 slight antiviral activity
human cytomegalovirus = assay: In vitro antiviral, inhibition of virus-induced CPE, HCMV; type: cell-based; settings: KB or RK-13 cells, VR >0.5 significant, <0.5 slight antiviral activity
pseudorabies virus = type: cell-based; settings: PRV; KB or RK-13 cells; VR >0.5 significant, <0.5 slight antiviral activity
myxoma virus = assay: In vitro antiviral, inhibition of virus-induced CPE, MV; type: cell-based; settings: KB or RK-13 cells, VR >0.5 significant, <0.5 slight antiviral activity
Description: In this example, compounds 3, 4, 13, 16, 20, 22, 29 and 30 were tested to determine their in vitro antiviral efficacy, using the inhibition virus-induced cytopathogenic effect (CPE) method of Sidwell, et al. (Applied Microbiology 22:797-801, 1971). Briefly, the CPE procedure includes the suspension of the antiviral agent in a cell culture medium consisting of vitamins, amino acids, serum, buffer, penicillin, streptomycin and indicator dye in water. The virus suspended in the cell culture medium was added to an established monolayer of KB cells or RK-13 cells, and an equal volume of the antiviral agent was then added within 15 minutes. The infected treated cells were graded following microscopic examination. Controls for each experiment include cell controls cells and cell culture medium only), virus controls (cell and virus cell culture medium) and toxicity controls (cells and chemical and cell culture medium).
The virus rating (VR) system of Sidwell et al., described in Applied Microbiology, supra, was used to evaluate the degree of significance of CPE inhibition.

[2] = system: Parainfluenza virus, type 3; assay: In vitro antiviral, inhibition of virus-induced CPE, PIV/3; type: cell-based
[3] = system: parainfluenza virus, type 1; assay: In vitro antiviral, inhibition of virus-induced CPE, PIV/1; type: cell-based
rhinovirus, type 1A = assay: In vitro antiviral, inhibition of virus-induced CPE, RV/1A; type: cell-based; settings: KB or RK-13 cells, VR >0.5 significant, <0.5 slight antiviral activity
RV/2: rhinovirus, type 1 = assay: In vitro antiviral, inhibition of virus-induced CPE, RV/2; type: cell-based; settings: KB or RK-13 cells, VR >0.5 significant, <0.5 slight antiviral activity
rhinovirus, type 8 = assay: In vitro antiviral, inhibition of virus-induced CPE, RV/8; type: cell-based; settings: KB or RK-13 cells, VR >0.5 significant, <0.5 slight antiviral activity
rhinovirus, type 13 = assay: In vitro antiviral, inhibition of virus-induced CPE, RV/13; type: cell-based; settings: KB or RK-13 cells, VR >0.5 significant, <0.5 slight antiviral activity
rhinovirus, type 56 = assay: In vitro antiviral, inhibition of virus-induced CPE, RV/56; type: cell-based; settings: KB or RK-13 cells, VR >0.5 significant, <0.5 slight antiviral activity
influenza virus, type Ao = assay: In vitro antiviral, inhibition of virus-induced CPE, IV/Ao; type: cell-based; settings: KB or RK-13 cells, VR >0.5 significant, <0.5 slight antiviral activity
[4] = system: vesicular stomatitis virus; type: cell-based; settings: VSV; KB or RK-13 cells; VR >0.5 significant, <0.5 slight antiviral activity
leukemia L1210 = assay: Activity against leukemia L1210 in BDF1 female mice; type: in vivo; settings: 40 mg/kg i.p., qd [1-9]
Description: In this example compound 30 was tested for antitumor activity in mice. […] A 10^-5 M concentration of compound 30 caused 50% inhibition of the incorporation of ^3 H-thymidine and ^3 H-uridine into the acidinsoluble fraction of L1210 cells in tissue culture. […] Ara C (cytosine arabinoside) was included as a standard.
All animals were inoculated (i.p) with 10^5 leukemic cells. Treatment
was started 24 hours after transplant. Figures in parenthesis denote 21

[5] = system: viruses causing respiratory diseases such as influenza in man; settings: background statement; cited from earlier work
Escherichia Coli = assay: In vivo antibacterial activity, survival of mice after intraperitoneal challenge with Escherichia coli 138; parameters: species or system white mice (ICR, COX 17 to 20 g); settings: 7 days
Description: In this example compounds 7 and 23 were tested along with, as a comparison, the known antibiotic Gentamycin, to determine their in vivo antibacterial activity. Experimental infections were produced in groups of 20 white mice (ICR, COX 17 to 20 g).
*Ec 138: Tetracycline and Streptomycin
**The LD50 is the challenge that killed 50% of the infected mice; th
LD50 values for the pathogen were calculated by the method of Probit

virus = settings: background statement; cited from earlier work
[6] = system: herpes simplex virus, type 2; assay: In vitro antiviral, inhibition of virus-induced CPE, HSV/2; type: cell-based; settings: KB or RK-13 cells, VR >0.5 significant, <0.5 slight antiviral activity
Escherichis = assay: In vitro antibacterial, broth dilution assay, Escherichia; type: cell-based; settings: Escherichis; clinical isolates; 24 hr at 35°; read-out: Average MIC
Description: (§1) In this example compounds 7 and 30 were tested to determine their in vitro antibacterial activity. Clinical isolates of pathogens were used for this example. In vitro sensitivity of these organisms were quantitatively determined by broth dilution assay. Serial dilutions were prepared in chemically defined medium in a range from 100 to 0.01 μg/ml. The minimal Inhibitory Concentration (MIC) was recorded as the highest dilution of compound which prevented visible growth of the pathogen following 24 hr incubation at 35°.

Salmonella = assay: In vitro antibacterial, broth dilution assay, Salmonella; type: cell-based; settings: clinical isolates, 24 hr at 35°
Description: as §1

Serratia = assay: In vitro antibacterial, broth dilution assay, Serratia; type: cell-based; settings: clinical isolates, 24 hr at 35°
Description: as §1

Klebsiella = assay: In vitro antibacterial, broth dilution assay, Klebsiella; type: cell-based; settings: clinical isolates, 24 hr at 35°
Description: as §1

Enterobacter = assay: In vitro antibacterial, broth dilution assay, Enterobacter; type: cell-based; settings: clinical isolates, 24 hr at 35°
Description: as §1

Citrobacter = assay: In vitro antibacterial, broth dilution assay, Citrobacter; type: cell-based; settings: clinical isolates, 24 hr at 35°
Description: as §1

Providence = assay: In vitro antibacterial, broth dilution assay, Providence; type: cell-based; settings: clinical isolates, 24 hr at 35°
Description: as §1

Pseudomonas = assay: In vitro antibacterial, broth dilution assay, Pseudomonas; type: cell-based; settings: clinical isolates, 24 hr at 35°
Description: as §1

Proteus = assay: In vitro antibacterial, broth dilution assay, Proteus; type: cell-based; settings: Proteus; clinical isolates; 24 hr at 35°; read-out: Average MIC
Description: as §1

Shigella = assay: In vitro antibacterial, broth dilution assay, Shigella; type: cell-based; settings: clinical isolates, 24 hr at 35°
Description: as §1

In the case of `C[C@H]1O[C@@H](n2cnc3c(=O)[nH]c(N)cc32)[C@H](O)[C@@H]1O` [Compound 16, 6-Amino-1-(5-deoxy-β-D-ribofuranosyl)imidazo[4,5-c]pyridine-4(5H)-one], the “Virus rating (VR)” value [1] was 0.9.

With `Nc1cc2c(ncn2[C@@H]2O[C@H](CO)[C@@H](O)[C@H]2O)c(=O)[nH]1` [Compound 4, 6-Amino-1-β-D-ribofuranosylimidazo[4,5-c]pyridin-4(5H)-one] the “Virus rating (VR)” value (adenovirus, type 3) was 0.8, the “Virus rating (VR)” value [1] was 0.9 and the “Virus rating (VR)” value (vaccinia virus) was 0.6. The “Virus rating (VR)” value (human cytomegalovirus) was 0.5, the “Virus rating (VR)” value (pseudorabies virus) was 0.3 and the “Virus rating (VR)” value (myxoma virus) was 1.0. The “Virus rating (VR)” value ([2]; PIV/3, KB or RK-13 cells, VR >0.5 significant, <0.5 slight antiviral activity) was 0.6, the “Virus rating (VR)” value ([3]; PIV/1, KB or RK-13 cells, VR >0.5 significant, <0.5 slight antiviral activity) was 0.6 and the “Virus rating (VR)” value (rhinovirus, type 1A) was 0.1. For the same molecule, the “Virus rating (VR)” value (RV/2: rhinovirus, type 1) was 1.2, the “Virus rating (VR)” value (rhinovirus, type 8) was 1.2 and the “Virus rating (VR)” value (rhinovirus, type 13) was 1.0. For the same molecule, the “Virus rating (VR)” value (rhinovirus, type 56) was 0.7, the “Virus rating (VR)” value (influenza virus, type Ao) was 0.1 and the “Virus rating (VR)” value [4] was 1.1.

In the case of `Nc1ccn([C@@H]2O[C@H](CO)[C@@H](O)[C@@H]2O)c(=O)n1` [Ara C, 1-β-D-arabinofuranosylcytosine, reference compound], the 21 day survivors (leukemia L1210) was 0/6, the “Average Mean Survival” value (leukemia L1210) was 17.33 days and the T/C (leukemia L1210) was 2.11. For the same molecule, the ΔWt. (leukemia L1210) was -0.2 g and the “activity against respiratory disease viruses” value [5] was “only active against a limited spectrum of viruses which does not include those causing respiratory diseases”.

With Gentamycin [reference compound] the “% survival” value (Escherichia Coli; challenge 1 LD50, 1 mg/kg × 2, SC) was 100%, the “% survival” value (Escherichia Coli; challenge 10 LD50's, 1 mg/kg × 2, SC) was 100% and the “% survival” value (Escherichia Coli; challenge 100 LD50's, 1 mg/kg × 2, SC) was 90%. The “% survival” value (Escherichia Coli; challenge 1000 LD50's, 1 mg/kg × 2, SC) was 80% and the “% survival” value (Escherichia Coli; challenge 10,000 LD50's, 1 mg/kg × 2, SC) was 60%.

In the case of `NC(=O)c1nc[nH]n1` [1,2,4-triazole-3-carboxamide], the antiviral activity (virus) is listed as “significant antiviral activity”.

In the case of `NC(=O)c1ncn([C@@H]2O[C@H](CO)[C@@H](O)[C@H]2O)n1` [1-β-D-ribofuranosyl-1,2,4-triazole-3-carboxamide], the “activity against respiratory disease viruses” value [5] is listed as “active against these respiratory disease viruses”.

In the case of `O=c1[nH]c(=O)n([C@H]2C[C@H](O)[C@@H](CO)O2)cc1I` [IDU, 5-iodo-2' -deoxyuridine], the “activity against respiratory disease viruses” value [5] is given as “only active against a limited spectrum of viruses which does not include those causing respiratory diseases”.

In the case of `Nc1cc2ncn(C3CCCCO3)c2c(=O)[nH]1` (stereo not drawn) [Compound 13, 6-Amino-3-(tetrahydropyran-2-yl)imidazo[4,5-c]pyridin-4(5H)-one], the “Virus rating (VR)” value [1] was 0.8.

With `N#CCc1[nH]cnc1C(N)=O` [Compound 29, 4(5)-Cyanomethylimidazole-5(4)-carboxamide] the “Virus rating (VR)” value (adenovirus, type 3) was 0.8, the “Virus rating (VR)” value [1] was 0.9 and the “Virus rating (VR)” value [2] was 0.5. The “Virus rating (VR)” value (rhinovirus, type 13) was 0.6.

For `NC(=S)c1nc[nH]n1` [1,2,4-triazole-3thiocarboxamide], the antiviral activity (virus) is listed as “significant antiviral activity”.

With `N#CCc1c(C(N)=O)ncn1[C@@H]1O[C@H](COP(=O)(O)O)[C@@H](O)[C@H]1O` [Compound 20, 5-Cyanomethyl-1-β-D-ribofuranosylimidazole-4-carboxamide 5'-phosphate] the “Virus rating (VR)” value [1] was 0.8, the “Virus rating (VR)” value [6] was 0.5 and the “Virus rating (VR)” value (vaccinia virus) was 0.3.

With `Nc1cc2c(ncn2[C@@H]2O[C@H](COP(=O)(O)O)[C@@H](O)[C@H]2O)c(=O)[nH]1` [Compound 22, 6-Amino-1-β-D-ribofuranosylimidazo[4,5-c]pyridin-4(5H)-one 5'-phosphate] the “Virus rating (VR)” value [1] was 0.9, the “Virus rating (VR)” value [6] was 1.0 and the “Virus rating (VR)” value (vaccinia virus) was 0.7. For the same molecule, the “Virus rating (VR)” value [2] was 0.8, the “Virus rating (VR)” value [3] was 0.3 and the “Virus rating (VR)” value (rhinovirus, type 13) was 0.9.

For `Nc1cc2ncn([C@@H]3O[C@H](COP(=O)(O)O)[C@@H](O)[C@H]3O)c2c(=O)[nH]1` [Compound 23, 6-Amino-3-β-D-ribofuranosylimidazo[4,5-c]pyridin-4(5H)-one-5'-phosphate], the “% survival” value (Escherichia Coli; challenge 1000 LD50's, 100 mg/kg × 1, oral) was 100%.

`Nc1cc2ncn([C@@H]3O[C@H](CO)[C@@H](O)[C@H]3O)c2c(=O)[nH]1` [Compound 7, 6-amino-3-β-D-ribofuranosylimidazo[4,5-c]pyridin-4(5H)one] showed an MIC (Escherichis) of 0.5 µg/mL (≈ 1.77 µM), an MIC (Salmonella) of 5 µg/mL (≈ 17.7 µM) and an MIC (Serratia) of 5 µg/mL (≈ 17.7 µM). The MIC (Klebsiella) was 8 µg/mL (≈ 28.3 µM), the MIC (Enterobacter) was 10 µg/mL (≈ 35.4 µM) and the MIC (Citrobacter) was 5 µg/mL (≈ 17.7 µM). The MIC (Providence) was 15 µg/mL (≈ 53.1 µM), the MIC (Pseudomonas) was 100 µg/mL (≈ 354 µM) and the MIC (Proteus) was 10 µg/mL (≈ 35.4 µM). The MIC (Shigella) was 100 µg/mL (≈ 354 µM), the “% survival” value (Escherichia Coli; challenge 1 LD50, 50 mg/kg × 2, oral) was 100% and the “% survival” value (Escherichia Coli; challenge 10 LD50's, 50 mg/kg × 2, oral) was 100%. The “% survival” value (Escherichia Coli; challenge 100 LD50's, 50 mg/kg × 2, oral) was 100%, the “% survival” value (Escherichia Coli; challenge 1000 LD50's, 50 mg/kg × 2, oral) was 90% and the “% survival” value (Escherichia Coli; challenge 10,000 LD50's, 50 mg/kg × 2, oral) was 75%.

For `Nc1ncnc2c1ncn2[C@@H]1O[C@H](CO)[C@@H](O)[C@@H]1O` [ara-A, 9-β-D-arabino furanosyladenine], the “activity against respiratory disease viruses” value [5] is listed as “only active against a limited spectrum of viruses which does not include those causing respiratory diseases”.

In the case of `N#CCc1c(C(N)=O)ncn1[C@@H]1O[C@H](CO)[C@@H](O)[C@H]1O` [Compound 3, 5-Cyanomethyl-1-β-D-ribofuranosylimidazole-4-carboxamide], the “Virus rating (VR)” value [1] was 0.6 and the “Virus rating (VR)” value [6] was 1.3.
